According to US11261190B2, “Dihydropyrimidine compounds and uses thereof in medicine” (SUNSHINE LAKE PHARMA CO., LTD., priority 2017, dated 2022):
Where two headings read alike, the source gives them in different places.

Assays:
[1] = tested on: HBV; test: Anti HBV activity in vitro, viral DNA from HepG2.2.15 cells quantified by qPCR; type: cell-based; conditions: qPCR of viral DNA in supernatant, read-out: EC50 against HBV replication
Method: Test 1: Test Method of EC50 of Anti HBV
HBV Cell Line and Culture Conditions
HepG2.2.15 (SELLS, PNAS, 1987 and SELLS, JV, 1988) chromosomes have an integrated complete HBV genome, and stably express viral RNA and viral protein. HepG2.2.15 cells can secrete mature HBV particles, HBsAg and HBeAg to medium. HepG2.2.15 cells were cultured in DMEM containing 10% fetal bovine serum, 100 U/mL penicillin, 100 U/mL streptomycin, 1% non essential amino acid, 1 mM sodium pyruvate and 300 µg/mL G418.
Viral particles DNA secreted from HepG2.2.15 cells can be quantified by qPCR, and the effect of the compound on viral replication can be detected.
Test of Anti HBV Activity In Vitro
8000 HepG 2.2.15 cells per well were seeded into a 96-well plate, the plate was cultured at 37° C. and 5% CO2 for 3 days till the cells grew to full wells. Old liquid medium can be removed and replaced with new medium (200 μL) on day 0.
Formulating the compound and treating the cells in the experiment of anti virus: the compound was dissolved in DMSO to a concentration of 30 mM, and then the compound solution was diluted with DMSO to a concentration of […], and then eight dilutions at 4 fold were performed, the highest concentration is 800 μM. The serial diluted compound was added to the above plate at 1 μL per well, the highest final concentration in the experiment is 4 μM (200 fold dilution). TDF (tenofovir dipiroxil fumarate, Selleck, Cat S1400) has a highest concentration of 4 μM as a positive control. 1 μL of DMSO was added in to the positive control well at a final concentration of 0.5%, TDF was added in to the positive control well at a final concentration of 1 μM.
Detection of Viral Genomic DNA by qPCR
Primer: HBV-For-202, […]; HBV-Rev-315, […]. Copies of virus can be calculated using a standard curve plotted by using plasmid containing HBV genome and using SYBR Premix Ex Taq II Takara DRR081S kit and 1 μL cell culture supernatant as a template. EC50 values of the compound on viral replication were calculated by a four parametric nonlinear regression model using Graphpad Prism 5 software to manage concentration—viral copy number.

[2] = Cytotoxicity in HepG2.2.15 cells (CellTiter Glo); type: cell-based; conditions: human, highest concentration 150 μM
Method: (§1) Test 2: Cytotoxicity and Selectivity Index
(§2) Methods of Testing Cytotoxicity and Selectivity Index
(§3) The serial diluted compound was added to a 384 wells plate at 50 μL HepG2.2.15 cell per well (3000 cells per well), the highest final concentration in the experiment is 150 μM (200 fold dilution). The plate was cultured at 37° C. in an incubator with C02 for 4 days, and cytotoxicity of the compound was detected using CellTiter Glo agent.
(§4) The cytotoxicity of the compound was calculated using the following formulate, cytotoxicity (%)=100−(detection value/mean of DMSO control wells values×100). CC50 values were calculated by a four parametric nonlinear regression model using Graphpad Prism 5 software to manage concentration−cytotoxicity (%). […]

[3] = PK test on SD rats; type: in vivo; conditions: for AUC(0-inf) / AUC(0-t) / Tmax: male, rat, plasma
Method: The PK test method of the compound in vivo of SD rats (purchased from Hunan slack Jing Da laboratory animal Co., Ltd, weight: […] male, ages of 2-3 months, 3 per oral group, 3 per intravenous injection group):
The Rats were administered intragastrically with the test compound at doses of 2.5 mg/kg or 5 mg/kg or administered intravenously with the test compound at doses of 1 mg/kg.
Blood samples were taken at 0.083, 0.25, 0.5, 1, 2, 5, 7 and 24 hours from vein after the administration, and collected in anticoagulation tube with EDTA-K2. The test compounds were extracted from plasma samples by liquid-liquid extraction. Then quantitative analysis was performed on a triple-quadrupole tandem mass spectrometer using multiple reaction monitoring (MRM). Pharmacokinetic parameters were calculated using a noncompartmental method by WinNonLin 6.3 software.

[4] = tested on: HepG2.2.15 cells; test: Cytotoxicity in HepG2.2.15 cells (CellTiter Glo); type: cell-based; conditions: 4 days, highest concentration 150 μM
Method: as §1, §2, §3, §4

[5] = tested on: HBV; conditions: Science, 2003, 299, 893-896; cited from earlier work

COC(=O)C1=C(CN2CCN3C(=O)N(c4ccc(CCC(=O)O)cc4)C[C@@H]3C2)NC(c2nccs2)=N[C@H]1c1ccc(F)cc1Cl [Example 13, 3-(4-((S)-7-(((R)-6-(2-chloro-4-fluorophenyl)-5-(methoxycarbonyl)-2-(thiazol-2-yl)-3,6-dihydropyrimidin-4-yl)methyl)-3-oxohexahydroimidazo[1,5-a]pyrazin-2(3H)-yl)phenyl)propionic Acid]
EC50 ([1]; Hepatitis B virus): 4 nM
CC50 at 4 days [2]: > 150000 nM
AUC(0-inf) ([3]; iv, 1 mg/kg): 1320 ng·h/mL
AUC(0-t) ([3]; iv, 1 mg/kg): 1320 ng·h/mL
Tmax ([3]; iv, 1 mg/kg): 4.98 min
AUC(0-inf) ([3]; po, 5 mg/kg): 3080 ng·h/mL
AUC(0-t) ([3]; po, 5 mg/kg): 3050 ng·h/mL
Tmax ([3]; po, 5 mg/kg): 30 min
F ([3]; po, 5 mg/kg): 31.2%

COC(=O)C1=C(CN2CCN3C(=O)N(c4ccc(CC(=O)O)cc4)C[C@@H]3C2)NC(c2nccs2)=N[C@H]1c1ccc(F)cc1Cl [Example 14, 2-(4-((S)-7-(((R)-6-(2-chloro-4-fluorophenyl)-5-(methoxycarbonyl)-2-(thiazol-2-yl)-3,6-dihydropyrimidin-4-yl)methyl)-3-oxohexahydroimidazo[1,5-a]pyrazin-2(3H)-yl)phenyl)acetic Acid]
EC50 ([1]; Hepatitis B virus): 7 nM
CC50 at 4 days [2]: > 150000 nM
AUC(0-inf) ([3]; iv, 1 mg/kg): 684 ng·h/mL
AUC(0-t) ([3]; iv, 1 mg/kg): 680 ng·h/mL
Tmax ([3]; iv, 1 mg/kg): 4.98 min
AUC(0-inf) ([3]; po, 5 mg/kg): 2250 ng·h/mL
AUC(0-t) ([3]; po, 5 mg/kg): 2250 ng·h/mL
Tmax ([3]; po, 5 mg/kg): 30 min
F ([3]; po, 5 mg/kg): 44%

COC(=O)C1=C(CN2CCN3C(=O)N(c4ccc(CC(C)(C)C(=O)O)cc4)C[C@@H]3C2)NC(c2nccs2)=N[C@H]1c1ccc(F)cc1Cl [Example 17, 3-(4-((S)-7-(((R)-6-(2-chloro-4-fluorophenyl)-5-(methoxycarbonyl)-2-(thiazol-2-yl)-3,6-dihydropyrimidin-4-yl)methyl)-3-oxohexahydroimidazo[1,5-a]pyrazin-2(3H)-yl)phenyl)-2,2-dimethylpropionic Acid]
EC50 ([1]; Hepatitis B virus): 4 nM
CC50 at 4 days [2]: > 150000 nM
AUC(0-inf) ([3]; iv, 1 mg/kg): 979 ng·h/mL
AUC(0-t) ([3]; iv, 1 mg/kg): 977 ng·h/mL
Tmax ([3]; iv, 1 mg/kg): 4.98 min
AUC(0-inf) ([3]; po, 5 mg/kg): 5580 ng·h/mL
AUC(0-t) ([3]; po, 5 mg/kg): 4710 ng·h/mL
Tmax ([3]; po, 5 mg/kg): 60 min
F ([3]; po, 5 mg/kg): 114.1%

COC(=O)C1=C(CN2CCN3C(=O)N(c4ccc(C(C)CC(=O)O)cc4)C[C@@H]3C2)NC(c2nccs2)=N[C@H]1c1ccc(F)cc1Cl (stereo partly drawn) [Example 19, 3-(4-((S)-7-(((R)-6-(2-chloro-4-fluorophenyl)-5-(methoxycarbonyl)-2-(thiazol-2-yl)-3,6-dihydropyrimidin-4-yl)methyl)-3-oxohexahydroimidazo[1,5-a]pyrazin-2(3H)-yl)phenyl) butanoic Acid]
EC50 ([1]; Hepatitis B virus): 3 nM
CC50 at 4 days [2]: > 150000 nM
AUC(0-inf) ([3]; iv, 1 mg/kg): 5520 ng·h/mL
AUC(0-t) ([3]; iv, 1 mg/kg): 5520 ng·h/mL
Tmax ([3]; iv, 1 mg/kg): 4.98 min
AUC(0-inf) ([3]; po, 5 mg/kg): 20300 ng·h/mL
AUC(0-t) ([3]; po, 5 mg/kg): 20300 ng·h/mL
Tmax ([3]; po, 5 mg/kg): 30 min
F ([3]; po, 5 mg/kg): 73.4%

CCOC(=O)C1=C(CN2CCN3C(=O)N(c4nc(CCC(=O)O)cs4)C[C@@H]3C2)NC(c2nccs2)=N[C@H]1c1ccc(F)cc1Br [Example 30]
EC50 [1]: 12 nM
CC50 [4]: 133000 nM

COC(=O)C1=C(CN2CCN3C(=O)N(c4ccc(C(NC(=O)OC(C)(C)C)C(=O)O)cc4)C[C@@H]3C2)NC(c2nccs2)=N[C@H]1c1ccc(F)cc1Cl (stereo partly drawn) [Example 46, 2-((tert-butoxycarbonyl)amino)-2-(4-((S)-7-(((R)-6-(2-chloro-4-fluorophenyl)-5-(methoxycarbonyl)-2-(thiazol-2-yl)-3,6-dihydropyrimidin-4-yl)methyl)-3-oxohexahydroimidazo[1,5-a]pyrazin-2(3H)-yl)phenyl)acetic Acid]
EC50 ([1]; Hepatitis B virus): 22 nM
CC50 at 4 days [2]: > 150000 nM

COC(=O)C1=C(CN2CCN3C(=O)N(c4ccc(/C=C/C(=O)O)cc4)C[C@@H]3C2)NC(c2nccs2)=N[C@H]1c1ccc(F)cc1Cl [Example 47, (E)-3-(4-((S)-7-(((R)-6-(2-chloro-4-fluorophenyl)-5-(methoxycarbonyl)-2-(thiazol-2-yl)-3,6-dihydropyrimidin-4-yl)methyl)-3-oxohexahydroimidazo[1,5-a]pyrazin-2(3H)-yl)phenyl)acrylic Acid]
EC50 ([1]; Hepatitis B virus): 3 nM
CC50 at 4 days [2]: > 150000 nM

COC(=O)C1=C(CN2CCN3C(=O)N(c4ccc(CCC(N)=O)cc4)C[C@@H]3C2)NC(c2nccs2)=N[C@H]1c1ccc(F)cc1Cl [Example 48, (R)-methyl 6-(((S)-2-(4-(3-amino-3-oxopropyl)phenyl)-3-oxohexahydroimidazo[1,5-a]pyrazin-7(1H)-yl)methyl)-4-(2-chloro-4-fluorophenyl)-2-(thiazol-2-yl)-1,4-dihydropyrimidine-5-carboxylate]
EC50 ([1]; Hepatitis B virus): 10 nM
CC50 at 4 days [2]: > 150000 nM

COC(=O)C1=C(CN2CCN3C(=O)N(c4ccc(CCCNS(C)(=O)=O)cc4)C[C@@H]3C2)NC(c2nccs2)=N[C@H]1c1ccc(F)cc1Cl [Example 49, (R)-methyl 4-(2-chloro-4-fluorophenyl)-6-(((S)-2-(4-(3-(methylsulfonylamino)propyl)phenyl)-3-oxohexahydroimidazo[1,5-a]pyrazin-7(1H)-yl)methyl)-2-(thiazol-2-yl)-1,4-dihydropyrimidin-5-carboxylate]
EC50 ([1]; Hepatitis B virus): 12 nM
CC50 at 4 days [2]: > 150000 nM

COC[C@@H]1[C@H]2CN(c3ccc(CCC(=O)O)cc3)C(=O)N2CCN1CC1=C(C(=O)OC)[C@H](c2ccc(F)cc2Cl)N=C(c2nccs2)N1 [Example 51B]
EC50 ([1]; Hepatitis B virus): 9 nM
CC50 at 4 days [2]: > 150000 nM

COC(=O)C1=C(CN2CCN3C(=O)N(c4nc(/C=C/C(=O)O)cs4)C[C@@H]3C2)NC(c2nccs2)=N[C@H]1c1ccc(F)cc1Cl [Example 52, (E)-3-(2-((S)-7-(((R)-6-(2-chloro-4-fluorophenyl)-5-(methoxycarbonyl)-2-(thiazol-2-yl)-3,6-dihydropyrimidin-4-yl)methyl)-3-oxohexahydroimidazo[1,5-a]pyrazin-2(3H)-yl)-thiazol-4-yl)acrylic Acid]
EC50 ([1]; Hepatitis B virus): 13 nM
CC50 at 4 days [2]: > 150000 nM

COC(=O)C1=C(CN2CCN3C(=O)N(c4ccc(/C=C(\C)C(=O)O)cc4)C[C@@H]3C2)NC(c2nccs2)=N[C@H]1c1ccc(F)cc1Cl [Example 53, (E)-3-(4-((S)-7-(((R)-6-(2-chloro-4-fluorophenyl)-5-(methoxycarbonyl)-2-(thiazol-2-yl)-3,6-dihydropyrimidin-4-yl)methyl)-3-oxohexahydroimidazo[1,5-a]pyrazin-2(3H)-yl)phenyl)-2-methylacrylic Acid]
EC50 ([1]; Hepatitis B virus): 14 nM
CC50 at 4 days [2]: > 150000 nM

COC(=O)C1=C(CN2CCN3C(=O)N(c4ccc(/C(C)=C/C(=O)O)cc4)C[C@@H]3C2)NC(c2nccs2)=N[C@H]1c1ccc(F)cc1Cl [Example 54, (E)-3-(4-((S)-7-(((R)-6-(2-chloro-4-fluorophenyl)-5-(methoxycarbonyl)-2-(thiazol-2-yl)-3,6-dihydropyrimidin-4-yl)methyl)-3-oxohexahydroimidazo[1,5-a]pyrazin-2(3H)-yl)phenyl)-2-butenoic Acid]
EC50 ([1]; Hepatitis B virus): 11 nM
CC50 at 4 days [2]: > 150000 nM

COC(=O)C1=C(CN2CCN3C(=O)N(c4ccc(CCC(=O)O)cc4)C[C@@H]3[C@H]2CO)NC(c2nccs2)=N[C@H]1c1ccc(F)cc1Cl [Example 59B]
EC50 ([1]; Hepatitis B virus): 15 nM
CC50 at 4 days [2]: > 150000 nM

Nc1ccn([C@@H]2CS[C@H](CO)O2)c(=O)n1 [lamivudine]
IC50 [5]: 300 nM
